In patent US20140163100A1, “Methods of Treating Multiple Sclerosis and Preserving and/or Increasing Myelin Content” (BIOGEN IDEC MA INC., priority 2011, published 2014):
Where a name gives a salt, the structure may show the parent alone. Read-outs that look alike come from different tables or passages of the source.

Legend:
[1] = system: subjects with relapsing-remitting multiple sclerosis; test: First Phase 3 clinical trial: quality of life (SF-36, VAS); format: in vivo, human; settings: for mean SF-36 PCS score: at 2 years (placebo 42.0); for SF-36 Mental Component Scale score: at 2 years (placebo 44.6); for mean VAS score (global impression of well-being): at 2 years (placebo 60.3)
Procedure: Subjects participating in the study described in Example 1 were provided an SF-36 questionnaire to measure the subjects' health status and health-related quality of life (“QoL”) at baseline, 6, 12, and 24 months, on eight multi-item, 100-point scales, with higher scores indicating higher QoL. These scores were used to calculate the Physical Component Summary (“PCS”) and Mental Component Summary (“MCS”) scores. In addition, the subjects' global impression of well-being was assessed at baseline and every 3 months using a 100-point, visual analogue scale (VAS) with higher score indicating improvement in well-being.

[2] = First Phase 3 clinical trial: safety and tolerability (adverse events); format: in vivo, human
Procedure: Safety and tolerability were assessed by continuous adverse event (“AE”) monitoring and laboratory tests at all monthly visits. Additionally, physical examination, vital signs, and 12-lead ECG were evaluated. As an ethical consideration, subjects' reconsent was required following any protocol-defined disability progression or relapse.

[3] = system: subjects with relapsing-remitting multiple sclerosis; test: First Phase 3 clinical trial: MRI lesion loads; format: in vivo, human; settings: 2 years
Procedure: Subjects from 76 sites out of 198 participating in the study described in Example 1 had MRI scans at baseline, 24 weeks, 1 year and 2 years. Number of new or newly enlarging T2 lesions and number of gadolinium-enhancing (Gd+) lesions at 2 years were secondary endpoints of the study. Analyses were conducted on the MRI intention-to-treat population.

[4] = system: subjects with relapsing-remitting multiple sclerosis; test: First Phase 3 clinical trial: relapse and disability efficacy; format: in vivo, human; settings: for reduction of ARR vs placebo / reduction of risk of confirmed, 12-week disability progression: 2 years; for annualized relapse rate (ARR): 2 years (placebo 0.36); for reduction of risk of confirmed, 12-week disability progression: EDSS; for reduction of proportion of subjects relapsing compared with placebo: at 2 years
Procedure: The primary endpoint of the study in Example 1 was the proportion of subjects relapsing at 2 years, with relapses confirmed by an independent neurology evaluation committee (“INEC”) to ensure consistent and accurate reporting across sites. Secondary clinical efficacy endpoints at 2 years were the annualized relapse rate (“ARR”) and disability progression using EDSS. Efficacy analyses were conducted on the intention-to-treat population.

[5] = system: subjects with relapsing-remitting multiple sclerosis; test: First Phase 3 clinical trial: magnetization transfer ratio (MTR) substudy; format: in vivo, human
From the text: The study described in Example 1 included a substudy to examine change in magnetization transfer ratio (“MTR”) with treatment. MTR imaging has been proposed for use as a biomarker of changes in the myelin content of brain white matter. The aim of the study was to determine change in brain and lesion MTR in RR-MS. MTR scans were obtained in a subset of subjects at baseline and 6, 12 and 24 months, using manufacturer-supplied MT pulse sequences. MTR substudies were implemented at 64 of 76 MRI sites (84%) and included a total of 540 subjects: 176 in the dimethyl fumarate 240 mg bid group, 184 in the dimethyl fumarate 240 mg tid group, and 180 in the placebo group.

[6] = human, in vivo
Procedure: A second randomized, double-blind, placebo-controlled, multicenter, phase 3 clinical trial was conducted to evaluate the efficacy and safety of dimethyl fumarate over 2 years in subjects with relapsing-remitting multiple sclerosis (“RR-MS”).
Subjects 18-55 years of age with RR-MS and an Expanded Disability Status Scale score of 0.0-5.0 (inclusive) and having one or more relapses in the prior 12 months or one or more Gd^+ lesions in the prior 6 weeks were eligible for enrolment. Subjects were randomly assigned to placebo, dimethyl fumarate 240 mg PO twice daily (BID), dimethyl fumarate three times daily (TID), glatiramer acetate 20 mg SC once daily (QD).

[7] = system: mouse MS model; test: Mouse MS model, neuroprotective effects; format: in vivo; settings: mouse MS model with features of advanced stages of chronic forms of MS
From the text: Although many well characterized rodent and primate models for MS exist, only recently have the characteristic features of progressive MS been identified in select animal models.

## COC(=O)/C=C/C(=O)OC [dimethyl fumarate]
[1]; 240 mg BID
  mean SF-36 PCS score: 43.4
  SF-36 Mental Component Scale score: 45.5
  mean VAS score (global impression of well-being): 64.3
[1]; TID
  mean SF-36 PCS score: 44.2
  SF-36 Mental Component Scale score: 46.1
  mean VAS score (global impression of well-being): 65.7
[2]; dimethyl fumarate TID arm, result of a motor vehicle accident
  deaths: One death
[2]; human, in vivo
  MS relapse reported as AE: 27%
  opportunistic infections: no opportunistic infections were observed
[2]; human, in vivo, 2 years
  AEs reported by subjects: 95%
  Incidence of infections and infestations: 64-68%
  Incidence of severe infections and infestations: 2-3%
  Severe AEs reported: 17%
  subjects discontinuing treatment due to AEs (number): 68
  subjects discontinuing treatment due to AEs (percent): 16%
  subjects reporting flushing: 32%
  subjects withdrew from the study: approximately 23%
[3]; 240 mg BID
  reduction of mean number of Gd+ lesions compared with placebo: 94%
  reduction of mean number of new or newly enlarging T2 lesions compared with placebo: 85%
[3]; TID
  reduction of mean number of Gd+ lesions compared with placebo: 72%
  reduction of mean number of new or newly enlarging T2 lesions compared with placebo: 74%
[4]; 240 mg BID
  reduction of ARR vs placebo: 53%
  annualized relapse rate (ARR): 0.17
  reduction of risk of confirmed, 12-week disability progression: 38%
  reduction of proportion of subjects relapsing compared with placebo: 49%
[4]; 240 mg BID, <40 years
  Annualized relapse rate at 2 years, % Reduction vs. Placebo: 63%
  Proportion of patients relapsed at 2 years, % Reduction vs. Placebo: 59%
  Time to confirmed disability progression at 2 years, % Reduction vs. Placebo: 62%
[4]; 240 mg BID, ≧40 years
  Annualized relapse rate at 2 years, % Reduction vs. Placebo: 34%
  Proportion of patients relapsed at 2 years, % Reduction vs. Placebo: 26%
  Time to confirmed disability progression at 2 years, % Reduction vs. Placebo: 8%
[4]; 240 mg TID, <40 years
  Annualized relapse rate at 2 years, % Reduction vs. Placebo: 59%
  Proportion of patients relapsed at 2 years, % Reduction vs. Placebo: 56%
  Time to confirmed disability progression at 2 years, % Reduction vs. Placebo: 38%
[4]; 240 mg TID, ≧40 years
  Annualized relapse rate at 2 years, % Reduction vs. Placebo: 29%
  Proportion of patients relapsed at 2 years, % Reduction vs. Placebo: 37%
  Time to confirmed disability progression at 2 years, % Reduction vs. Placebo: 32%
[4]; TID
  reduction of ARR vs placebo: 48%
  annualized relapse rate (ARR): 0.19
  reduction of risk of confirmed, 12-week disability progression: approximately 34%
  reduction of proportion of subjects relapsing compared with placebo: 50%
[4]; subjects under 40 years vs 40 years or older, 240 mg BID and TID
  efficacy by age subgroup: more efficacious in subjects under 40 years of age
[5]; 240 mg bid (placebo −0.386%)
  increase from baseline in whole brain MTR: 0.129%
[5]; 240 mg bid (placebo −0.392%)
  increase from baseline in normal appearing brain tissue MTR: 0.190%
[5]; 240 mg tid (placebo −0.386%)
  increase from baseline in whole brain MTR: 0.096%
[5]; 240 mg tid (placebo −0.392%)
  increase from baseline in normal appearing brain tissue MTR: 0.115%
[6]
  most frequently reported AEs associated with dimethyl fumarate: flushing, diarrhea, nausea, upper respiratory tract infection, abdominal pain, and proteinuria
[6]; 2 years
  AEs reported by subjects: 92%
  subjects discontinuing treatment due to AEs (number): 41
  subjects discontinuing treatment due to AEs (percent): 12%
  subjects withdrew from the study: 21%
[7]
  neuroprotective effects: reduction in demyelination and axonal damage
